The target in assay [1] is T1, H3 receptors (guinea pig brain) (Cavia porcellus, UniProt Q9JI35).
T1 construct: The brain tissue was homogenized with a solution of 50 mM Tris, pH 7.5; from tissue; host or cells: guinea pig brain membranes
The experiment in a line: H3-receptor binding assay, guinea pig brain membranes. As to the method: (§1) General Procedure for H3-Receptor Binding Assay
(§2) The source of the H3 receptors in this experiment was guinea pig brain. Alternatively, the source of H3 receptors was recombinant human receptor, expressed in HEK-293 (human embryonic kidney) cells.
The animals weighed 400-600 g. The brain tissue was homogenized with a solution of 50 mM Tris, pH 7.5. The final concentration of tissue in the homogenization buffer was 10% w/v. The homogenates were centrifuged at 1,000×g for 10 min. in order to remove clumps of tissue and debris. The resulting supernatants were then centrifuged at 50,000×g for 20 min. in order to sediment the membranes, which were next washed three times in homogenization buffer (50,000×g for 20 min. each). The membranes were frozen and stored at −70° C. until needed.
All compounds to be tested were dissolved in DMSO and then diluted into the binding buffer (50 mM Tris, pH 7.5) such that the final concentration was 2 μg/ml with 0.1% DMSO. Membranes were then added (400 μg of protein, 5 μg in the case of recombinant human receptor) to the reaction tubes. […] Bound ligand was separated from unbound ligand by filtration, and the amount of radioactive ligand bound to the membranes was quantitated by liquid scintillation spectrometry. […]

The target of assay [2] is T2, H3 receptors (recombinant human receptor, expressed in HEK-293 cells) (Homo sapiens, UniProt Q9Y5N1).
T2 construct: expressed in transfected cells; host or cells: HEK-293 (human embryonic kidney) cells
In words: H3-receptor binding assay, recombinant human receptor. How it is done: as §1, §2
All compounds to be tested were dissolved in DMSO and then diluted into the binding buffer (50 mM Tris, pH 7.5) such that the final concentration was 2 μg/ml with 0.1% DMSO. Membranes were then added (400 μg of protein, 5 μg in the case of recombinant human receptor) to the reaction tubes. The reaction was started by the addition of 3 nM [^3H]R-α-methyl histamine (8.8 Ci/mmol) or 3 nM [^3H]N^α-methyl histamine (80 Ci/mmol) and continued under incubation at 30° C. for 30 min. Bound ligand was separated from unbound ligand by filtration, and the amount of radioactive ligand bound to the membranes was quantitated by liquid scintillation spectrometry. All incubations were performed in duplicate and the standard error was always less than 10%. Compounds that inhibited more than 70% of the specific binding of radioactive ligand to the receptor were serially diluted to determine a Ki (nM).

T2 sequence (Q9Y5N1 whole entry): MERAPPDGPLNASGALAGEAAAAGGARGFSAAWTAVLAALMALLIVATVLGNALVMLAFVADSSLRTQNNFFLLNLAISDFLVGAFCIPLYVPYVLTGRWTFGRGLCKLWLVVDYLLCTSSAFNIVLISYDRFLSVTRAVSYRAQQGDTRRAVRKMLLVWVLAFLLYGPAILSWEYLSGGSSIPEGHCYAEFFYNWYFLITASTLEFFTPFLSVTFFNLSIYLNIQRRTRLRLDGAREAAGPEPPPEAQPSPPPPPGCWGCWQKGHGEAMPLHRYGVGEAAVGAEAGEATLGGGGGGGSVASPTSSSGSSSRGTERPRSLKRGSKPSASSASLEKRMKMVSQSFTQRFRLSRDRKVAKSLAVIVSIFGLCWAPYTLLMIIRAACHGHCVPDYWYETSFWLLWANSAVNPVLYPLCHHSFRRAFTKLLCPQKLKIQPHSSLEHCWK
T1 sequence (Q9JI35 whole entry): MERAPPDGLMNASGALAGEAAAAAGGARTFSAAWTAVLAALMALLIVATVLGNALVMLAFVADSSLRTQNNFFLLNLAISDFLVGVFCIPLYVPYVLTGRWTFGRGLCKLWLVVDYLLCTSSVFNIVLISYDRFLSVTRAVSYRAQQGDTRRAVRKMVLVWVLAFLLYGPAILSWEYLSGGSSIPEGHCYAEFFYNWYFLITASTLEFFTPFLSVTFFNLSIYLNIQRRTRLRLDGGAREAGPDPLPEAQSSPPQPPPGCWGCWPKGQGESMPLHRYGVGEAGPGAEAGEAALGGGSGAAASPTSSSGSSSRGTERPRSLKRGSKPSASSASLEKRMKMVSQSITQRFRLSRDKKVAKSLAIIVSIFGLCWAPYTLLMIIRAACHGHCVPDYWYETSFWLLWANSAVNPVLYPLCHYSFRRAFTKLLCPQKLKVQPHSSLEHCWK

`CS(=O)(=O)NC(c1ccccn1)C1CCN(C(=O)C2CCN(Cc3ccnc(N)c3)CC2)CC1` (centres unmarked) [Example 92]: the affinity in assay [1], expressed as Ki, was 0.35 nM. For the molecule `CNC(=O)[C@H]1C[C@@]1(c1ccc(Cl)cc1)C1CCN(C(=O)C2CCN(Cc3ccnc(N)c3)CC2)CC1` [Example 88], the Ki in assay [2] stood at 1.1 nM.

As usually defined, the Ki is the equilibrium dissociation constant of an inhibitor or competing ligand from its target.

These data come from patent US7408066B2, “Carbon-linked substituted piperidines and derivatives thereof useful as histamine H3 antagonists” (Schering Corproation, priority 2005, dated 2008).
